Results published in patent US20240398806A1, “Compositions For and Methods of Treating and/or Preventing Pain” (Duke University, priority 2021, published 2024).

Tests used:
lamina IIo neurons = test system: lamina IIo neurons; design: dose or concentration left out as unconfirmed; settings: slices of PTX-treated mice
[1] = Cocaine- and methamphetamine-induced hyperlocomotion, open field; format: in vivo, mice (C57BL/6J background); settings: 12 mg/kg i.p., WT mice
Protocol: (§1) Once stable performance was achieved, self-administration was assessed once daily in 60 min sessions. Animals received vehicle (saline, i.p.) or SBI-553 (2, 6, or 12 mg/kg, i.p.) immediately prior to placement into self-administration chambers with access to cocaine at doses of 0.1, 0.3, 0.5, or 1 mg/kg/infusion. FIG. 7B-FIG. 7C show cocaine-induced and methamphetamine-induced hyperlocomotion.
Open-field testing is used to analyze animal movement. The Accuscan open field (Omnitech Electronics, Inc.) was used to assess locomotor activity as previously described (Toth et al., 2018: Slosky L M, et al. (2020)). Here, animal movement is determined by the breaking of gridded photocell beams.
(§2) The effect of SBI-553 on cocaine self-administration was both cocaine-dose dependent and SBI-553-dose dependent. […] In the presence of β-arrestin2, SBI-553 reduced activity in mice. A 12 mg/kg (i.p.) dose of SBI-553 decreased both cocaine-and methamphetamine-induced hyperlocomotion in wild-type (WT) mice on a C57BL/6J background (FIG. 7B-FIG. 7C). […] Conversely, a significant reduction in locomotion was absent in global β-arrestin2 KO mice (Slosky L M, et al. (2020) Cell. 181(6):1364-1379e14).

NTSR1 [2] = target: T1, NTSR1 (Homo sapiens, UniProt P30989); test: Gq protein activation / intracellular Ca++ (FIG. 5A); format: cell-based; design: expressed in transfected cells; host or cells: HEK293T cell membranes; settings: unlike NT
From the text: Preliminary studies provided significant data for this example. SBI-553 was derived from a medicinal chemistry campaign to improve the ML314 probe series and was selected for potency, pharmacokinetic profile, and selectivity for NTSR1 over the NTSR2 (Pinkerton A B, et al. (2019) J Med Chem. 62(17):8357-8363, which is incorporated by reference for its teachings of the making of SBI-553). […] Binding specificity to NTSR1 was further confirmed by comparing membranes containing an off-target receptor (i.e., b2-adrenergic receptor) (Slosky L M, et al. (2020) Cell. 181(6):1364-1379e14). […] These findings indicate that SBI-553 is a β-arrestin-biased ligand that stimulates β-arrestin-mediated processes at NTSR1 […] without activating Gq protein signaling (FIG. 5).

[3] = Whole body plethysmography (respiratory depression); format: in vivo, mice
From the text: Third, plethysmography is used to examine whether SBI-553 and IND ready analog SBI-810 can be administered to mice intraperitoneally, intravenously, or intrathecally without respiratory depression. Using plethysmography determine whether SBI-553 and IND ready analog SBI-810 can be administered to mice (e.g., C57BL6J) intraperitonially, intravenously, or intrathecally without respiratory depression. […] The “Buxco FinePointe Whole Body Plethysmography 4-Site System” was used to assess whether any IND analogs like the SBI-810 in the same system following intraperitoneal, intravenous, or intrathecal administration. Here. C57BL6J mice are assessed using UWBP, a technique that provides a, non-invasive, quantitative means to assess and analyze respiratory parameters. This will include tidal volume, minute volume, inspiratory duty cycle, inspiratory flow rate and the ratio of inspiration time to expiration time using a repeated measures approach to determine lung function on the same animal under multiple treatment conditions.

NTSR1 [4] = target: T1, NTSR1; test: [3H]SBI-553 saturation binding to NTSR1-containing HEK293T cell membranes; design: expressed in transfected cells; host or cells: HEK293T cell membranes; settings: below 400 nM
[5] = Core body temperature measurement; format: in vivo, C57BL/6J mice
Protocol: Core body temperatures were recorded from age-matched male and female C57BL/6J mice prior to treatment (Time 0) and 30 min, 60 min, 120 min, and 300 min post-treatment using a rectal probe thermometer for mice (Thermalert Model TH-8, Physitemp Instruments, Inc., Clifton, NJ). On three days of the week leading up to the study, animals were handled and temperatures were taken to acclimate the animals to the procedure.
SBI-553 treatment was not associated with hypothermia or hypotension. In addition to modulating motivated behavior. […] SBI-553 (at 2-30 mg/kg, i.p.) had no effect on core body temperature (FIG. 6B). […] This was an effect not secondary to hypothermia as body temperature was maintained by thermal support. These findings indicate that a Gq protein-dependent mechanism mediates NTSR1-associated side effects and is not engaged by SBI-553. Consistent with an antagonist like action at NTSR1.

[6] = Intravenous cocaine self-administration; format: in vivo, mice; settings: 2, 6 or 12 mg/kg i.p.; cocaine 0.1-1 mg/kg/infusion
Protocol: as §1, §2

[7] = mouse, in vivo; cited from earlier work
[8] = Rotarod test of motor function; settings: i.t. injection

T1 sequence (P30989 whole entry): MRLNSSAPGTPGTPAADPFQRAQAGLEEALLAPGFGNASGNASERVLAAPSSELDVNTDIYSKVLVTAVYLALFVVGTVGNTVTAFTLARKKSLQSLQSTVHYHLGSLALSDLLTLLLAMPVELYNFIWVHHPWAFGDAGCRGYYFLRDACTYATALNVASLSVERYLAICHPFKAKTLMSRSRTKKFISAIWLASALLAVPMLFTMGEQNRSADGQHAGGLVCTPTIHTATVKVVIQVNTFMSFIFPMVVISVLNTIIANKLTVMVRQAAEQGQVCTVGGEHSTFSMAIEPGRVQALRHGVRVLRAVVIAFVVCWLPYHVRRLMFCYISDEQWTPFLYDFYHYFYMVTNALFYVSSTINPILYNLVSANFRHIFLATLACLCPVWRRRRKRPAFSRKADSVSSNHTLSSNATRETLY

Activation of G protein Gq / intracellular Ca++ (NTSR1 [2]): cannot activate the G protein Gq
Breathing frequency or tidal volume ([3]; on its own): had no effect
Reduction in breathing frequency or tidal volume produced by morphine ([3]; with morphine): did not exacerbate
Specific [3H]SBI-553 binding as share of total binding (NTSR1 [4]): ~50%
Core body temperature ([5]; 2-30 mg/kg, i.p.): no effect
SMILES: COc1ccccc1C1CCN(c2nc(C3(F)CC3)nc3ccc(N(C)CCO)cc23)CC1 [SBI-553]
Excitatory synaptic transmission (sEPSCs) in lamina IIo neurons (lamina IIo neurons): significantly suppressed
Cocaine-induced hyperlocomotion ([1]; cocaine 30 mg/kg i.p.): decreased
Methamphetamine-induced hyperlocomotion ([1]; methamphetamine 2 mg/kg i.p.): decreased
Reversal of PD149163-associated decrease in body temperature ([5]; pretreatment p.o. 30 min prior to PD149163 (i.p.)): dose-dependently reversed
Cocaine self-administration [6]: maintenance intake reduction
Methamphetamine conditioned place preference [7]: reduced
Rotarod testing versus vehicle [8]: no significant difference
